In patent US20180016304A1, “SELF-ASSEMBLING ULTRASHORT ALIPHATIC DEPSIPEPTIDES FOR BIOMEDICAL APPLICATIONS” (Agency for Science, Technology and Research, priority 2015, published 2018):
Like-named read-outs stand apart in the source and are kept apart here. Where a SMILES comes first, the peptide text is derived from it.

Assays:
[1] = Minimum gelation concentration / hydrogel formation; type: physicochemical
Description: In order to determine the minimum gelation concentration in water, the depsipeptide was dissolved in MilliQ water.
Liskamp reported depsipetides based on the amylin (20-29) structure.

[2] = tested on: human mesenchymal stem cells (hMSCs); assay: Cytocompatibility, WST-1 cell metabolic activity assay; type: cell-based; details: for cytocompatibility / tolerance: fragments particularly if the acidity was neutralized
Description: Human mesenchymal stem cells, hMSCs, were obtained from Lonza (Basel, Switzerland) and cultured in MSC growth medium (MSCGM) with 5% fetal bovine serum, 2% L-glutamine and 0.1% penicillin-streptomycin (Lonza). The cell metabolic activity was measured with the Cell Proliferation Reagent WST-1 assay (Roche Diagnostics, Mannheim, Germany). Briefly, 5000 hMSC cells were seeded in each well and media containing the sample was added to the desired concentration (n=6). After incubation for 72 hours at 37° C., the media was aspirated and media containing 10% WST-1 reagent added for 2 hours. The absorbance at 450 nm was measured subtracting the absorbance at 600 nm. The absorbance readings were further normalized against cells cultured in media containing an equivalent volume of PBS (i.e. 100% cell survival) to determine the percentage cell viability. Cells cultured with an equivalent volume of ethanol were used as a negative control (i.e. 100% cell death).
In order to determine depsipeptide cytotoxicity and effect on cell proliferation, human mesenchymal stem cells (hMSCs) were incubated with various concentrations of the depsipeptide and their metabolic activity and viability was tested after 3 days. Cell viability decreased with increasing depsipeptide concentration. […] To address concerns that the cytotoxicity could be attributed to the degradation products following hydrolysis of the ester bond, the possible degradation products, the peptide Ac-ILV and depsipeptide HO-aGK-NH2, were also evaluated.

[3] = 2 mg/mL in PBS
Description: In order to test the degradation ability of the depsipeptide, 2 mg/mL was dissolved in PBS puffer at pH 5.7, 7.3 and 8.5. All samples were incubated at 37° C. and analysed by HPLC-MS.
In order to characterize the degradation products of the depsipeptide Ac-ILV-OH and HO-aGK-NH2 were synthesized and the retention time was determined by HPLC-MS.

[4] = MilliQ water, depsipeptide sample left at room temperature

“Ac-IK6-NH2: parent ultrashort self-assembling peptide Ac-ILVAGK-NH2, without α-hydroxy acid [reference compound]” gave a minimum gelation concentration [1, 4] of 10 mg/mL.

In the case of `CC(O)C(=O)NCC(=O)N[C@@H](CCCCN)C(N)=O` (some centres unmarked) [HO-aGK-NH2] (HELM PEPTIDE1{[CC(O)C(=O)[*:2]].G.K.[am]}$$$$V2.0), the “concentration at which significant cytotoxicity was demonstrated” value ([2]; 3 days, WST-1) is reported as over 10000 µg/mL and the cytocompatibility / tolerance ([2]; 3 days) is reported as “extremely well tolerated”.

With `CC[C@H](C)[C@H](NC(C)=O)C(=O)N[C@@H](CC(C)C)C(=O)N[C@H](C(=O)O)C(C)C` [Ac-ILV] (Ac-Ile-Leu-Val-OH) the cytocompatibility / tolerance ([2]; 3 days) was “extremely well tolerated”.

For `CC[C@H](C)[C@H](NC(C)=O)C(=O)N[C@@H](CC(C)C)C(=O)N[C@H](C(=O)OC(C)C(=O)NCC(=O)N[C@@H](CCCCN)C(N)=O)C(C)C` (some centres unmarked) [Ac-ILVaGK-NH2, Acetylated isoleucine-leucine-valine-lactic acid-glycine-lysine] (HELM PEPTIDE1{[ac].I.L.V.[CC(O[*:1])C(=O)[*:2]].G.K.[am]}$$$$V2.0), the hydrogel formation ([1]; 100 mg/mL dissolved in 90% water, 10% 10xPBS added) was “instantaneous hydrogel formation”, the minimum gelation concentration [1, 4] was 100 mg/mL and the “minimum gelation concentration relative to parent peptide Ac-IK6-NH2” value ([1]; in water as well as in 1xPBS buffer) was “about 10 times”. For the same compound, the minimum gelation concentration ([1]; with PBS buffer added (1x PBS)) was 60 mg/mL, the “stability (degradation)” value ([3]; pH 5.7, 37° C., compared with pH 7.3 and 8.5) was “most” and the “stability (degradation)” value ([3]; pH 8.5, 37° C., compared with pH 5.7 and 7.3) was “least stable”. The “IC50 (cell viability)” value ([2]; 3 days (72 hours) incubation, WST-1) was “approximately 15 mg/mL”.
